The text below walks through data of PubChem BioAssay AID1949 (Southern Research Institute, 2009).

Values after ≈ are worked out from the molar mass of the structure shown. Results filed as inconclusive are left out. Active and inactive are the calls of the source. The rule behind the calls is not given here. Where only a bound is given, the exact number is not on record here.

The subject of this assay is M. tuberculosis H37Rv growth inhibition. The experiment in a line: Mycobacterium tuberculosis H37Rv growth inhibition, cell based, confirmatory dose response (AID 1949).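 Note: bacteria grown 7 days with compound before Alamar blue readout.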
Turning to `O=S(=O)(CCSc1nc2ccccc2s1)c1nc2ccccc2s1`, the IC50 – broadly, the concentration that inhibits the measured activity by half – is 7.23 mg/L (≈ 18.4 µM). The figure for `CCCCn1c(NCc2ccc(N(CC)CC)cc2)nc2ccccc21` is 11.2 mg/L (≈ 32 µM); for `COc1cc(C(=O)Oc2ccc(Cl)c3cccnc23)cc(OC)c1OC` it is 11.3 mg/L (≈ 30.2 µM). The figure for `COc1ccc(-c2nc(NC(=O)c3ccccc3)n[nH]2)cc1OC` is 1.5 mg/L (≈ 4.62 µM); for `CCN(CC)c1ccc(NC(=O)C23CC4CC(CC(C4)C2)C3)cc1` it is > 50 mg/L (inactive).

Regarding `C=CS(=O)c1sc(Cl)c(N2CCOCC2)c1[N+](=O)[O-]` (stereo unspecified), the IC50 was 5.77 mg/L (≈ 17.9 µM). As for `CCOC(=O)c1ccc(NC(=S)NC(NC(=O)c2ccc(Br)cc2)C(Cl)(Cl)Cl)cc1` (stereo unspecified), the IC50 is 6.15 mg/L (≈ 11.1 µM). With `CCc1cc2c(=O)c(-c3ccc4c(c3)OCCCO4)coc2cc1OC(C)C(=O)OC` (stereo unspecified), the IC50 is 39.9 mg/L (≈ 94.1 µM).

Turning to `Cc1cc(C)nc(/N=C(\N)Nc2ccccc2Sc2ccccc2)n1`, the IC50 is > 50 mg/L (inactive). On to `COc1ccc(C2=CC(c3ccccc3Cl)n3nnnc3N2)cc1OC` (stereo unspecified), for which the IC50 is 24.1 mg/L (≈ 65 µM).

Take `FC(F)(F)c1ccccc1Nc1nc(-c2ccccn2)cs1`: the IC50 was under 0.1 mg/L. The figure for `COC(=O)C(C)Oc1ccc2c(=O)c(-c3ccc(Cl)cc3)coc2c1` (stereo unspecified) is 4.23 mg/L (≈ 11.8 µM). The figure for `C=CCc1cc(Cl)ccc1OCCCCn1ccnc1` is 2.09 mg/L (≈ 7.19 µM).

For `O=c1c2ccccc2nc(/C=C/c2ccc([N+](=O)[O-])o2)n1-c1cccc(O)c1`, the IC50 is 0.65 mg/L (≈ 1.73 µM). The figure for `Fc1ccccc1-c1nc(-c2cnc3ccccc3c2)c(-c2cccs2)[nH]1` is 5.05 mg/L (≈ 13.6 µM).

In the case of `COc1cc2c(cc1NC(=O)Nc1ccc(Cl)cc1)oc1ccccc12`, the IC50 is 1.33 mg/L (≈ 3.63 µM). The figure for `COc1ccccc1NC(=O)CSc1nc(-c2ccccc2)cc(C(F)(F)F)c1C#N` is 1.63 mg/L (≈ 3.68 µM); for `COc1ccc(NC(=O)CC23CC4CC(CC(C4)C2)C3)cc1[N+](=O)[O-]` it is 3.05 mg/L (≈ 8.86 µM).

Take `CCOC(=O)c1c(NC(=S)NC(C)c2ccncc2)sc2c1CCCCCC2` (stereo unspecified): the IC50 is 32.8 mg/L (≈ 78.6 µM). Regarding `COc1cc(CNCc2ccccc2)c(Br)cc1OC1CCCC1`, the IC50 was 10.5 mg/L (≈ 27 µM). Next, `CCNS(=O)(=O)c1ccc(NC(=O)Nc2cccc(C(F)(F)F)c2)cc1`: 7.85 mg/L (≈ 20.3 µM). As to `Clc1ccc(OCCCCCn2ccnc2)c(Cl)c1`, the IC50 was 3.48 mg/L (≈ 11.6 µM). The figure for `O=C1N(Cc2ccccc2Cl)c2ccc(Br)cc2C1(O)c1c[nH]c2ccccc12` (stereo unspecified) is 1.68 mg/L (≈ 3.59 µM); for `O=C(Nc1ccc(Cl)cc1)NC1CC2CCC1C2` (stereo unspecified) it is 0.72 mg/L (≈ 2.72 µM); for `CC1CCc2c(sc3ncn(C(C)C(=O)OCc4ccccc4)c(=O)c23)C1` (stereo unspecified) it is 1.53 mg/L (≈ 4 µM). The figure for `CCCC(=O)N1CCN(c2ccc(NC(=O)COc3ccc(C(C)CC)cc3)cc2Cl)CC1` (stereo unspecified) is 11.3 mg/L (≈ 24 µM); for `O=C(Nc1ccc(OC(F)(F)C(F)F)cc1)Nc1cccc(Cl)c1` it is 0.75 mg/L (≈ 2.07 µM).

On to `c1ccc(CN2CCN(CCCOc3cccc4ccccc34)CC2)cc1`, for which the IC50 was 4.68 mg/L (≈ 13 µM). Next, `Cc1ccc(C)c(NC(=O)c2ccc(-c3ccccc3Cl)o2)c1`: 12.9 mg/L (≈ 39.7 µM); `O=C(NC(=S)N1CCc2ccccc21)c1ccco1`: 5.64 mg/L (≈ 20.7 µM); `COc1ccc(OC(C)C(=O)Nc2ccc(Cl)cc2C)cc1` (stereo unspecified): 0.62 mg/L (≈ 1.94 µM). The figure for `O=C(CCNc1cccc(Cl)c1)c1ccc([N+](=O)[O-])cc1` is 2.87 mg/L (≈ 9.42 µM); for `O=C(Nc1ccc(F)cc1)NC1CCCCCCC1` it is 2.53 mg/L (≈ 9.57 µM). Next, `CC(C)CN1C(=O)c2cccc3c([N+](=O)[O-])ccc(c23)C1=O`: > 50 mg/L (inactive); `COc1ccc(C(=S)N2CC(C)OC(C)C2)c(OC)c1` (stereo unspecified): > 50 mg/L (inactive). For `COc1cc(Br)cc2cc(C(=O)Nc3cccc(C(F)(F)F)c3)c(=O)oc12`, the IC50 is 0.11 mg/L (≈ 0.249 µM). Turning to `CCN(CC)c1ccc(NC(=O)c2cnccn2)cc1`, the IC50 is 2.37 mg/L (≈ 8.77 µM). Next, `CCn1c(Sc2ncnc3ccccc23)nc2ccccc21`: 2.77 mg/L (≈ 9.04 µM). Next, `Cn1nnc(NC(=O)COc2ccc(C3CCCCC3)cc2)n1`: 2.85 mg/L (≈ 9.04 µM); `N#C/C(=C/c1ccc(N2CCCCC2)o1)c1cccc(F)c1`: 5.98 mg/L (≈ 20.2 µM).

With `Cc1ccc(SCCNC(=S)Nc2ccc(Nc3ccccc3)cc2)cc1`, the IC50 is 4.03 mg/L (≈ 10.2 µM). Next, `CC(C)(C)c1ccc(C(=O)Nc2nccs2)cc1Br`: 0.37 mg/L (≈ 1.09 µM). As to `CN1CCN(c2nc(N3CCCc4ccccc43)nc(N3CCCc4ccccc43)n2)CC1`, the IC50 is 5.33 mg/L (≈ 12.1 µM).

On to `COc1ccc2nc(Nc3nc(C)c(C)c(=O)[nH]3)nc(C)c2c1`, for which the IC50 was > 50 mg/L (inactive). Next, `CC12CC3CC(C)(C1)CC(C(=O)NC1=NCCS1)(C3)C2`: 13 mg/L (≈ 44.3 µM). Next, `CCCCOc1ccc(S(=O)(=O)Nc2ccc(C)c(Cl)c2)cc1`: 5.13 mg/L (≈ 14.5 µM); `O=C1c2cccc3cccc(c23)C(=O)N1CCN1CCN(CC(O)COc2ccccc2Cl)CC1` (stereo unspecified): 2.93 mg/L (≈ 5.93 µM). Next, `COc1ccc2nc(/C(C#N)=C\c3ccc(SC)cc3)[nH]c2c1`: 7.56 mg/L (≈ 23.5 µM); `COc1cccc2cc(C(=O)Oc3ccc(Cl)cc3)c(=O)oc12`: > 50 mg/L (inactive); `CC(C)(C)NCCCCOc1ccc(Cl)cc1C(C)(C)C`: 3.77 mg/L (≈ 12.1 µM). Turning to `CC(=O)c1c(O)n(C)c(=S)n(C)c1=O`, the IC50 is > 50 mg/L (inactive). Take `c1ccc(CCN(Cc2ccccc2)C2CCN(Cc3c[nH]c4ccccc34)CC2)cc1`: the IC50 was 2.91 mg/L (≈ 6.87 µM). The figure for `Cn1nc(-c2ccc(N3CCCCC3)c(NC(=O)c3ccco3)c2)c2ccccc2c1=O` is > 50 mg/L (inactive). Consider `COC(=O)COc1ccc2c(=O)c(-c3ccc(Cl)cc3)coc2c1`, for which the IC50 is 0.99 mg/L (≈ 2.87 µM). On to `CCN(CC)c1ccc(NC(=S)NCc2ccc(Cl)cc2)cc1`, for which the IC50 is 3.18 mg/L (≈ 9.14 µM).

On to `O=C(C1CCCN1S(=O)(=O)c1ccc(Cl)cc1)N1CCOCC1` (stereo unspecified), for which the IC50 is 20 mg/L (≈ 55.7 µM).

On to `Cc1cc(OCC(=O)NC2C3CC4CC(C3)CC2C4)cc(C)c1Br` (stereo unspecified), for which the IC50 was 1.45 mg/L (≈ 3.7 µM).

Regarding `CC(C)(C)c1ccc(C(=O)Nc2ccc(NC(=S)NC(=O)c3cccs3)cc2)cc1`, the IC50 was 0.46 mg/L (≈ 1.05 µM). The figure for `Clc1cccc(Nc2nc(NCc3ccco3)c3ccccc3n2)c1` is 1.05 mg/L (≈ 2.99 µM); for `CCN(CC)c1ncnc2c1sc1nc(C)cc(C)c12` it is > 50 mg/L (inactive). Next, `COC(=O)c1ccc(OCC(=O)c2ccc(F)cc2)cc1`: > 50 mg/L (inactive); `CC(=O)Oc1ccccc1C(=O)OCc1ccc2ccccc2c1`: 11.7 mg/L (≈ 36.5 µM); `O=C(Oc1ccccc1)c1cccc2cccnc12`: 0.99 mg/L (≈ 3.97 µM). Next, `COCCCN1C(=O)c2cccc3c([N+](=O)[O-])ccc(c23)C1=O`: 15.3 mg/L (≈ 48.7 µM); `CC1=CC(C)(C)N2C(=O)C(=O)c3cc(OC(=O)c4ccccc4C)cc1c32`: 8.23 mg/L (≈ 22.8 µM); `COc1ccc(-c2cc(C(=O)N/N=C/C=C/c3ccccc3OC)[nH]n2)cc1`: under 0.1 mg/L.

For the compound `CC(C(=O)Oc1cccc2cccnc12)N1C(=O)c2ccccc2C1=O` (stereo unspecified), the IC50 is 4.4 mg/L (≈ 12.7 µM). In the case of `O=C(NCCC12CC3CC(CC(C3)C1)C2)c1ccc(Br)cc1`, the IC50 is 0.28 mg/L (≈ 0.773 µM). The figure for `Cc1ccc(C(=O)NC(=S)Nc2cccc(NC(=O)c3cccs3)c2)c(C)c1` is 6.96 mg/L (≈ 17 µM); for `CC(C)OC(=O)C(C)Oc1ccc(C(=O)NCCc2ccccc2)cc1` (stereo unspecified) it is 48.3 mg/L (≈ 136 µM); for `c1cc2[nH]onc2c2c3c(nc12)CCCC3` it is 8.28 mg/L (≈ 38.8 µM). The figure for `COc1ccc(C2=CC(=O)c3ccccc3C2=O)cc1` is 3.53 mg/L (≈ 13.4 µM); for `CCOC(=O)c1ccc(NC(=S)Nc2ccc(F)c(Cl)c2)cc1` it is 0.28 mg/L (≈ 0.794 µM). Next, `CCCCOC(=O)c1cccc(NC(=O)c2cccc(Cl)c2)c1`: 4.03 mg/L (≈ 12.1 µM); `COc1ccccc1-n1c(=O)oc2ccc(Cl)cc2c1=O`: 4.95 mg/L (≈ 16.3 µM). Take `O=C(Nc1ccc(Cc2ccncc2)cc1)c1ccc(-c2cccc(C(F)(F)F)c2)o1`: the IC50 was 12 mg/L (≈ 28.5 µM). On to `CCOc1ccc(OCc2ccc(C(=O)Nc3cccc(C)n3)o2)cc1`, for which the IC50 is 7.11 mg/L (≈ 20.2 µM). Next, `Cc1ccc2oc(-c3cc(NC(=O)Cc4ccccc4)ccc3Cl)nc2c1`: under 0.1 mg/L; `COC(=O)c1ccc(NC(=O)CSc2ccc(F)cc2)cc1`: 4.02 mg/L (≈ 12.6 µM). Next, `Cn1c2c(c(=O)n(C)c1=O)C(C(F)(F)F)(C(F)(F)F)N=C(c1cccc([N+](=O)[O-])c1)N2`: > 50 mg/L (inactive). Next, `CCOC(=O)c1ccc(NC(=S)Nc2cc(Cl)c(Cl)cc2Cl)cc1`: 2.72 mg/L (≈ 6.74 µM); `Cc1ccc(NCCC(=O)c2ccc([N+](=O)[O-])cc2)cc1Cl`: 19.6 mg/L (≈ 61.3 µM); `O=S(=O)(Nc1cc(Sc2cccc3cccnc23)c(O)c2ccccc12)c1ccccc1`: 0.18 mg/L (≈ 0.393 µM). As for `CCOc1ccccc1C(=O)Nc1ccccc1O`, the IC50 was 8.93 mg/L (≈ 34.7 µM). The figure for `Clc1ccc(OCCn2ccnc2)cc1Cl` is 7.53 mg/L (≈ 29.3 µM); for `O=C1C(=O)N(Cc2cccc3ccccc23)c2ccc(Cl)cc21` it is 21.4 mg/L (≈ 66.6 µM). Turning to `Cc1c(OC(=O)c2cccc([N+](=O)[O-])c2)ccc2c1CCCC2`, the IC50 is 2.64 mg/L (≈ 8.48 µM).

For the compound `CCc1ccc(C(=S)Nc2ccccc2)nc1`, the IC50 is 2.23 mg/L (≈ 9.2 µM).

Turning to `COc1ccc(C2(C(=O)Nc3ccc(Br)cc3)CCCC2)cc1`, the IC50 is 1.37 mg/L (≈ 3.66 µM). Next, `c1ccc(CNCCCOc2cccc3ccccc23)cc1`: 4.89 mg/L (≈ 16.8 µM); `Cc1c(Cl)c(C(F)(F)F)nn1CCCNC(=S)NCc1ccc(Cl)cc1`: 11.2 mg/L (≈ 26.2 µM); `CCN(CC)c1ccc(NC(=S)NCCc2ccc(OC)c(OC)c2)cc1`: 1.68 mg/L (≈ 4.33 µM). The figure for `O=c1c2ccccc2[nH]c(=S)n1CCCN1CCN(c2cccc(Cl)c2)CC1` is 2.46 mg/L (≈ 5.93 µM); for `Cc1ccc(C(=O)Nc2nc(-c3ccccc3)c(-c3ccccc3)o2)cc1` it is under 0.1 mg/L. As to `Cc1cccc(N2CCN(C(=O)c3ccc(-c4ccccc4)cc3)CC2)c1C`, the IC50 was 2.34 mg/L (≈ 6.32 µM). The figure for `CCOC(=O)C1=C(C)N=c2s/c(=C\c3ccc([N+](=O)[O-])o3)c(=O)n2C1c1ccc(OCC)cc1` (stereo unspecified) is > 50 mg/L (inactive); for `Cc1ccc(OC(=O)c2ccc3nc(C)sc3c2)cc1` it is > 50 mg/L (inactive).

Take `COC(=O)COc1ccc(-c2ccc(C)cc2)cc1`: the IC50 was 0.22 mg/L (≈ 0.858 µM).

Consider `N#Cc1ccccc1NC(=O)CSc1nc2cc3ccccc3cc2[nH]1`, for which the IC50 was 2.68 mg/L (≈ 7.48 µM).

Regarding `Cc1cccnc1Nc1nc(-c2ccccn2)cs1`, the IC50 is under 0.1 mg/L.

For `Cn1nc([N+](=O)[O-])nc1Oc1ccc(C(C)(C)C)cc1`, the IC50 is under 0.1 mg/L.
